Data on two compounds can be found in BindingDB's records for doi:10.1021/jm00008a002 (Warner-Lambert, 1995).

The target of the test is Endothelin-1 receptor (Oryctolagus cuniculus). As to the kind of experiment: Tested for antagonistic activity against Endothelin A receptor in the rabbit renal artery vascular smooth muscle cells.

As to `COc1ccc(CC2=C(c3ccc(Cl)c(Cl)c3)C(=O)OC2(O)c2ccc(OC)cc2)cc1` (configuration not stated) [3-(3,4-Dichloro-phenyl)-5-hydroxy-4-(4-methoxy-benzyl)-5-(4-methoxy-phenyl)-5H-furan-2-one], inhibition was half-maximal at 310 nM (IC50).

For `COc1ccc(C2(O)OC(=O)C(c3ccc4c(c3)OCO4)=C2Cc2ccc(OC)c(C)c2)cc1` (configuration not stated) [3-Benzo[1,3]dioxol-5-yl-5-hydroxy-4-(4-methoxy-3-methyl-benzyl)-5-(4-methoxy-phenyl)-5H-furan-2-one], the IC50 (as a rule, the point on the concentration scale where inhibition reaches its midpoint) came out at 6 nM.
